Measured values: patent publication US20040259905A1, “Aqueous ecabet sodium solution preparation” (priority 2001, published 2004)
Structures can show the parent of a compound that is named as a salt.

Test: Solubility of ecabet sodium in aqueous solution
Type: physicochemical
Conditions: pH less than pH 7

With `CC(C)c1cc2c(cc1S(=O)(=O)O)[C@@]1(C)CCC[C@@](C)(C(=O)O)[C@@H]1CC2` [ecabet sodium, (+)-(1R,4aS,10aR)-1,2,3,4,4a,9,10,10a-octahydro-1,4a-dimethyl-7-(1-methylethyl)-6-sulfo-1-phenanthrencarboxylic acid 6-sodium salt pentahydrate] the “solubility in an aqueous solution” value was “low”.
